This note sets out measurements from patent US20230124361A1, “SMALL MOLECULE STING ANTAGONISTS” (CURADEV PHARMA PVT. LTD., priority 2020, published 2023).

Molecules are shown by their SMILES. pIC50: −log10 of the molar value.

The target in the assay is T1, STING (Homo sapiens, UniProt Q86WV6, G230A/H232R/R293Q/R71H).
T1 construct: host or cells: THP1-Dual cells (human THP-1 monocyte line with Lucia/SEAP reporters)
T1 sequence (Q86WV6 whole entry R71H/G230A/H232R/R293Q): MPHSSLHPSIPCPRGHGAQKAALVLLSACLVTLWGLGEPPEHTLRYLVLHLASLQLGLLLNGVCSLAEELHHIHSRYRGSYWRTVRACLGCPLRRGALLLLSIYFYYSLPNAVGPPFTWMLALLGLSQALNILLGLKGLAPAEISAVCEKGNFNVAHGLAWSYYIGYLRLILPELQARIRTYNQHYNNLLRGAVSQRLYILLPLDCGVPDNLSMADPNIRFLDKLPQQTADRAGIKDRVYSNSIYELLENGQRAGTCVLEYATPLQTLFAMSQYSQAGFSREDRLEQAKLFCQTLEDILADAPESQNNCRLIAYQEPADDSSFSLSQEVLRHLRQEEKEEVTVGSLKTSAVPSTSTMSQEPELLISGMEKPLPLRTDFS
The experiment in a line: Reporter gene expression assay in THP1-Dual cells (IRF pathway Lucia luciferase, 2',3'-cGAMP stimulation). In kind it is cell-based. The conditions noted are these: 10 min preincubation, 5 μM 2',3'-cGAMP, 20 hr, IRF reporter QUANTI-Luc, read-out: THP-1 (HAQ) Activity. The method in brief:
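THP1-Dual cells preincubated 10 min with compound, then stimulated with 5 μM 2′,3′-cGAMP for 20 hr. Secreted Lucia luciferase (IRF reporter) measured in supernatant by luminescence; IC50 reported as ranges (A ≤1 μM, B >1–≤10 μM, C >10 μM).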
As for `O=C(Nc1ccc2c(c1)N(Cc1ccc(OC(F)(F)F)cc1F)CCO2)Nc1ccc2cc[nH]c2c1` [Example 174, 1-(4-(2-fluoro-4-(trifluoro-methoxy)benzyl)-3,4-dihydro-2H-benzo[b][1, 4]oxazin-6-yl)-3-(1H-indol-6-yl)urea], the pIC50 was at least 6.00.
Turning to `O=S(=O)(Nc1ccc2c(c1)OCCN2c1ccccc1)Nc1ccc2cc[nH]c2c1` [Example 175, N-1H-indol-6-yl-N′-(4-phenyl-3,4-dihydro-2H-1,4-benzoxazin-7-yl)sulfuric diamide], the pIC50 is 5.00 to 6.00.
With `O=S(=O)(Nc1ccc2c(c1)N(Cc1ccccc1)CCO2)Nc1ccc2cc[nH]c2c1` [Example 176, 4-Benzyl-N-(1H-indol-6-ylsulfamoyl)-2,3-dihydro-1,4-benzoxazin-6-amine] the figure was 5.00 to 6.00; with `O=C(Nc1ccc2c(c1)N(Cc1ccccc1)CCO2)Nc1cnc2cc[nH]c2c1` [Example 177, 1-(4-benzyl-3,4-dihydro-2H-benzo[b][1, 4]oxazin-6-yl)-3-(1H-pyrrolo[3,2-b]pyridin-6-yl)urea], 5.00 to 6.00; with `CN(C(=O)Nc1ccc2cc[nH]c2c1)c1ccc2c(c1)N(Cc1ccccc1)CCO2` [Example 178, 1-(4-benzyl-3,4-dihydro-2H-benzo[b][1, 4]oxazin-6-yl)-3-(1H-indol-6-yl)-1-methylurea], 5.00 to 6.00.
Next, `NC(=O)c1cc2c(cc1NC(=O)Nc1ccc3cc[nH]c3c1)N(Cc1ccccc1)CCO2` [Example 179, 6-(3-(1H-indol-6-yl)ureido)-4-benzyl-3,4-dihydro-2H-benzo[b][1, 4]oxazine-7-carboxamide]: 5.00 to 6.00.
For `O=C(Nc1ccc2cc[nH]c2c1)Nc1cc2c(cc1Br)OCCN2Cc1ccccc1` [Example 180, 1-(4-benzyl-7-bromo-3,4-dihydro-2H-benzo[b][1, 4]oxazin-6-yl)-3-(1H-indol-6-yl)urea], the pIC50 is 5.00 to 6.00.
Next, `O=C(Nc1ccc2c(c1)OCCN2c1ccccc1)Nc1ccc2cc[nH]c2c1` [Example 181, 1-(1H-indol-6-yl)-3-(4-phenyl-3,4-dihydro-2H-benzo[b][1,4]oxazin-7-yl)urea]: at least 6.00.
Next, `O=C(Nc1ccc2c(c1)SCCN2c1ccccc1)Nc1ccc2cc[nH]c2c1` [Example 182, 1-(1H-indol-6-yl)-3-(4-phenyl-3,4-dihydro-2H-benzo[b][1,4]thiazin-7-yl)urea]: at least 6.00; `O=C(Nc1ccc2c(c1)N(c1ccccc1)C(=O)CO2)Nc1ccc2cc[nH]c2c1` [Example 183, 1-(1H-indol-6-yl)-3-(3-oxo-4-phenyl-3,4-dihydro-2H-benzo[b][1,4]oxazin-6-yl)urea]: below 5.00.
On to `O=C(Nc1ccc2c(c1)N(c1ccccc1)CCO2)Nc1ccc2cc[nH]c2c1` [Example 184, 1-(1H-indol-6-yl)-3-(4-phenyl-3,4-dihydro-2H-benzo[b][1,4]oxazin-6-yl)urea], for which the pIC50 was 5.00 to 6.00.
Next, `O=C(Nc1ccc2c(c1)OCCN2c1ncco1)Nc1ccc2cc[nH]c2c1` [Example 185, 1-(1H-indol-6-yl)-3-(4-(oxazol-2-yl)-3,4-dihydro-2H-benzo[b][1,4]oxazin-7-yl)urea]: at least 6.00; `N#CC1COc2cc(NC(=O)Nc3ccc4cc[nH]c4c3)ccc2N1Cc1ccccc1` (stereo not drawn) [Example 186, 1-(4-benzyl-3-cyano-3,4-dihydro-2H-benzo[b][1,4]oxazin-7-yl)-3-(1H-indol-6-yl)urea]: 5.00 to 6.00.
With `NCC1COc2cc(NC(=O)Nc3ccc4cc[nH]c4c3)ccc2N1Cc1ccccc1` (stereo not drawn) [Example 187, 1-(3-(aminomethyl)-4-benzyl-3,4-dihydro-2H-benzo[b][1,4]oxazin-7-yl)-3-(1H-indol-6-yl)urea] the figure was 5.00 to 6.00; with `NC(=O)C1COc2cc(NC(=O)Nc3ccc4cc[nH]c4c3)ccc2N1Cc1ccccc1` (stereo not drawn) [Example 188, 7-(3-(1H-indol-6-yl)ureido)-4-benzyl-3,4-dihydro-2H-benzo[b][1,4]oxazine-3-carboxamide], 5.00 to 6.00.
